According to PMC6199744, “Development of Chemical Proteomics for the Folateome and Analysis of the Kinetoplastid Folateome” (ACS Infectious Diseases, 2018):
Like-named read-outs stand apart in the source and are kept apart here.

Columns and labels:
Format in all cases: binding
[1] = target: T1, HeLa cell extract proteins (Homo sapiens, UniProt Q9H3U1)
T1 construct: endogenous in cells; host or cells: HeLa cell extract
T1 sequence (Q9H3U1 1-944): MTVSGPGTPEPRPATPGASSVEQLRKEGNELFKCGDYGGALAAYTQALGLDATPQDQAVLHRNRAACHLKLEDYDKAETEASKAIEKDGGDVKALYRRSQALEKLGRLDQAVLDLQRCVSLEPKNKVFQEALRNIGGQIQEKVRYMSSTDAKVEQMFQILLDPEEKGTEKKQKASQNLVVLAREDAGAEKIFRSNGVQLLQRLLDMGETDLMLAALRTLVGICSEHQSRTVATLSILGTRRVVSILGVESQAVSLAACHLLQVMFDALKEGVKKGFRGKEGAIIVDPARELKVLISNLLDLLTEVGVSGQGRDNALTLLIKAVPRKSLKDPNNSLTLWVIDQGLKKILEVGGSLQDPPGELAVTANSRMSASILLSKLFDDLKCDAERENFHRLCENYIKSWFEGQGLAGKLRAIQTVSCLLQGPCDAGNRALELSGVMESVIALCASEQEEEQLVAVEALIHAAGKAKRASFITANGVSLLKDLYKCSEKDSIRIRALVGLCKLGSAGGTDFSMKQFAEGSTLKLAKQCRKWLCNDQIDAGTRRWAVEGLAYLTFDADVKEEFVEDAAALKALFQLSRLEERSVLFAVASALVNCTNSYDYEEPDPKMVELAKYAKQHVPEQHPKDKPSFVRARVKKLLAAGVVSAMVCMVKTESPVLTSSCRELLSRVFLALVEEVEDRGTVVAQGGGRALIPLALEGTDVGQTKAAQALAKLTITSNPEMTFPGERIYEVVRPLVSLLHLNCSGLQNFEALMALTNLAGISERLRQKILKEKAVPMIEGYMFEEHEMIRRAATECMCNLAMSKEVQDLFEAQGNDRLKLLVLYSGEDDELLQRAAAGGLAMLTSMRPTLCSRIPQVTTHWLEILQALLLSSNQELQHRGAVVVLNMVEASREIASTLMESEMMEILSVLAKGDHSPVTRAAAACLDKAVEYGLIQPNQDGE

[2] = target: T2, HeLa cell extract proteins (Homo sapiens, UniProt P50395)
T2 construct: endogenous in cells; host or cells: HeLa cell extract
T2 sequence (P50395 1-445): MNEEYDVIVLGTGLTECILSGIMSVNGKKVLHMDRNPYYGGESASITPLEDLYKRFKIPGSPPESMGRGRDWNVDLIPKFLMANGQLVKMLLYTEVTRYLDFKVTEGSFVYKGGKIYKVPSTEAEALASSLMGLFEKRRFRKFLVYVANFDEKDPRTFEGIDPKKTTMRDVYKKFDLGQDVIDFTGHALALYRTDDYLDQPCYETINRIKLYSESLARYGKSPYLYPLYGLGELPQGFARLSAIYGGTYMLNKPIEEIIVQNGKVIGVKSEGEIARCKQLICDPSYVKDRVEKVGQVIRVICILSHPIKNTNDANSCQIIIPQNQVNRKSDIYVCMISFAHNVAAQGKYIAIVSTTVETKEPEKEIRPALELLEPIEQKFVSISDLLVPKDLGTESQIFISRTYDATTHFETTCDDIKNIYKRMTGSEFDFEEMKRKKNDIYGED

[3] = target: T3, HeLa cell extract proteins (Homo sapiens, UniProt P53992)
T3 construct: endogenous in cells; host or cells: HeLa cell extract
T3 sequence (P53992 1-1094): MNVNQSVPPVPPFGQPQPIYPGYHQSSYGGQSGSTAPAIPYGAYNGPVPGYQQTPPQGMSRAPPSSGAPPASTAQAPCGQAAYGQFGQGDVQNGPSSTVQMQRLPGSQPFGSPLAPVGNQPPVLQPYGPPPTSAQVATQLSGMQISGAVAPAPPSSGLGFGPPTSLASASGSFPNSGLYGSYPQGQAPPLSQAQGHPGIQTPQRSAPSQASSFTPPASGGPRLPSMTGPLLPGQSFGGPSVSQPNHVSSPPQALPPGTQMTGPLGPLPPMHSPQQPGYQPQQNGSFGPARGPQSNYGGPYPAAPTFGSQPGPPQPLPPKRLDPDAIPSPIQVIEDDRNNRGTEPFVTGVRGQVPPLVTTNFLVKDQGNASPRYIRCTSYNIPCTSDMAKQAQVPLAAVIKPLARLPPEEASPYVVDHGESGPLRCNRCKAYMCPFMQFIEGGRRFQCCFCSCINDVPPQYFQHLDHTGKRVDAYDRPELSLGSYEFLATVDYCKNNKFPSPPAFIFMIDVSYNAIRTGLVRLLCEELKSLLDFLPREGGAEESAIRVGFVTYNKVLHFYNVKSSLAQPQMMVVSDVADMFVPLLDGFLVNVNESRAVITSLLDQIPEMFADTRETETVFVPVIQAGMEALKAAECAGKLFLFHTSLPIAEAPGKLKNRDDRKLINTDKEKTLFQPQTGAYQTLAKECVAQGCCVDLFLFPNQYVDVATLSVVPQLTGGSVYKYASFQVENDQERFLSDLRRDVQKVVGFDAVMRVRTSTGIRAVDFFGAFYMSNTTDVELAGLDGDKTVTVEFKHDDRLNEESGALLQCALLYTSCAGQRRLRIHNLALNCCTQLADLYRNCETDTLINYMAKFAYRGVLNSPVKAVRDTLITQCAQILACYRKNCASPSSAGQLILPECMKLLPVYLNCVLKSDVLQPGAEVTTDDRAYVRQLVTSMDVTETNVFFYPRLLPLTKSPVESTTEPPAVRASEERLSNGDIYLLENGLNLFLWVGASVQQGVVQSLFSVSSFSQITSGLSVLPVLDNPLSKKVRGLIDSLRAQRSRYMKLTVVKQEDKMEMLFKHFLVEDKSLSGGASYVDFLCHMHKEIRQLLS

[4] = target: T4, HeLa cell extract proteins (Homo sapiens, UniProt Q01650)
T4 construct: endogenous in cells; host or cells: HeLa cell extract

[5] = target: T5, HeLa cell extract proteins (Homo sapiens, UniProt P30876)
T5 construct: endogenous in cells; host or cells: HeLa cell extract

T4 sequence (Q01650 whole entry): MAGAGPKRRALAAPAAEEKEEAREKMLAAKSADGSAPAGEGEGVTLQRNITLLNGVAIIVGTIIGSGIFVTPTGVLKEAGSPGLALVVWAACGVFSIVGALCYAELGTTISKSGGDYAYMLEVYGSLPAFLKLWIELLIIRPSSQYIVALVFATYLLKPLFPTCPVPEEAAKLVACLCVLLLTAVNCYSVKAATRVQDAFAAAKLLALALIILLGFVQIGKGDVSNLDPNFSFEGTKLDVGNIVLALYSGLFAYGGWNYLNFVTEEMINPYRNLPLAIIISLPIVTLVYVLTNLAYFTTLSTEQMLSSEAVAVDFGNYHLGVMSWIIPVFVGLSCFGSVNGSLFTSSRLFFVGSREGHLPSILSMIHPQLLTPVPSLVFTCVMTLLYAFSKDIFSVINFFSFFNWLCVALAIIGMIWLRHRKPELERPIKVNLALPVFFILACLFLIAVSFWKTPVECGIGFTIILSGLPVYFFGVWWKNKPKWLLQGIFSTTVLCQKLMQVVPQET

SMILES	fold changes relative to vehicle control ([1]; HeLa, protein UNC45A)	fold changes relative to vehicle control ([2]; protein GDI2, HeLa)	fold changes relative to vehicle control ([3]; HeLa, protein SEC24C)	fold changes relative to vehicle control ([4]; HeLa, captured protein SLC7A5)	fold changes relative to vehicle control ([5]; protein POLR2B, HeLa)	fold changes relative to vehicle control ([1]; protein UNC45A, HeLa)	fold changes relative to vehicle control ([3]; protein SEC24C, HeLa)	fold changes relative to vehicle control ([4]; HeLa, protein SLC7A5)	fold changes relative to vehicle control ([5]; HeLa, protein POLR2B)	fold changes relative to vehicle control [1]	fold changes relative to vehicle control [2]	fold changes relative to vehicle control [3]	fold changes relative to vehicle control [4]	fold changes relative to vehicle control [5]
Nc1nc2c(c(=O)[nH]1)N(C=O)C(CNc1ccc(C(=O)N[C@@H](CCC(=O)O)C(=O)O)cc1)CN2 (some centres unmarked) [LEU, leucovorin]	1.07	0.93	0.98	1.02	0.8									
NCCCNc1ccc(C(=O)NC(CCC(=O)O)C(=O)O)cc1 (centres unmarked) [compound 7]	1.05	1.02	1.14	0.97	0.91									
CCCCCCOc1cccc(Cc2cnc(N)nc2N)c1 [compound 2]		1.81				1.53	1.01	1.01	1.42					
CCCCCCOc1ccc(Cc2cnc(N)nc2N)cc1 [compound 1]		1.06				1.44	1.03	0.97	0.94					
Nc1nc2cccc(-c3ccccc3)c2n1Cc1ccc(Cl)c(Cl)c1 [compound 3]		0.72				0.97	1.28	1.06	0.98					
NCCOCCOCC(=O)Nc1nc2ncc(CNc3ccc(C(=O)NC(CCC(=O)O)C(=O)O)cc3)nc2c(=O)[nH]1 (centres unmarked) [compound 6]	1.16	1.03	0.92	0.76	1.07									
Nc1nc2[nH]cc(CCc3ccc(C(=O)N[C@@H](CCC(=O)O)C(=O)O)cc3)c2c(=O)[nH]1 [PTX, pemetrexed]										0.99	0.9	0.96	0.8	0.89
